Assay [1] can be described thus: oral glucose tolerance test (OGTT) in normal Swiss mice fasting for 17 hours, additive effect with metformin. The class given is in vivo. As to conditions: metformin 300 mg/kg per os; for Glycaemia, Time −60 mn / Glycaemia, Time 0 mn / Glycaemia, Time 30 mn / Glycaemia, Time 60 mn / Glycaemia, Time 90 mn / Glycaemia, Time 120 mn: OGTT; for Glycaemia, Time −60 mn: given 1 h before glucose load, time −60 min; for Glycaemia, Time 0 mn: time 0 min; for Glycaemia, Time 30 mn: time 30 min; for Glycaemia, Time 60 mn: time 60 min; for Glycaemia, Time 90 mn: time 90 min; for Glycaemia, Time 120 mn: time 120 min.

In assay [2] the test system is liver cells of rats fasting for 48 h. The experiment in a line: metabolism of lactate and glutamine in liver cells of rats fasting for 48 h. The class given is cell-based, rat. As for the experimental part:
[…] Enzymatic assay of the consumption of lactate and glutamine was performed, the production of their metabolites was also analysed. Finally the ATP cell concentration was determined.
Complete oxidation of a substrate was measured by the lowest CO2 value produced from one of its carbons. As a result, this carbon is found in greater quantity in non-volatile products (other than CO2) formed during the metabolism of this substrate.
Complete oxidation of lactate can therefore be determined by measuring the production of 13CO2 from 2-13C-lactate.
Complete oxidation of glutamine can be examined by measuring the production of 13CO2 from 3-13C-glutamine (Biochem. J., 2004, 378, 485-495).

A short description of assay [3]: glycaemia and circulating insulin before and after a glucose load in STZ-N0a rats. Particulars: for Glycaemia, Time −60 mn / Insulin, Time −60 mn: time −60 min; for Glycaemia, Time 0 mn / Insulin, Time 0 mn: time 0 min; for Glycaemia, Time 30 mn / Insulin, Time 30 mn: time 30 min; for Glycaemia, Time 60 mn / Insulin, Time 60 mn: time 60 min; for Glycaemia, Time 90 mn / Insulin, Time 90 mn: time 90 min; for Glycaemia, Time 120 mn / Insulin, Time 120 mn: time 120 min. The assay is classed as in vivo. An excerpt: An increase in insulin secretion was noted solely when compound 2 caused an increases in the peripheral consumption of glucose by skeletal muscle (Tables 9 to 12 which give a mean of the results obtained). […] It is shown in Tables 11 and 12 that if there is no increase in muscle consumption of glucose, there is no increase in the level of circulating insulin.

Setting [4] is: Table 3, compound 3 50 mg/kg per os.
[5] abbreviates: Table 4, compound 4 50 mg/kg per os.
Where [6] appears, read: 5 mM 2-13C-lactate + 0.5 mM compound 2, n = 4.
Where [7] appears, read: 5 mM 3-13C-glutamine + 0.5 mM compound 2, n = 4.
Where [8] appears, read: 5 mM glutamine + 2 mM compound 2, n = 6.
Where [9] appears, read: 5 mM lactate + 0.5 mM compound 2, n = 3.
Setting [10] is: 5 mM lactate + 2 mM compound 2, n = 6.
[11] abbreviates: Table 2, compound 2 50 mg/kg per os.
[12] abbreviates: Table 11, compound 2, title 25 mg/kg (row prints 200 mg/kg).
The mark [13] stands for this setting: Table 12, compound 2, title 25 mg/kg (row prints 200 mg/kg).

Take `COc1cccc(N2CCN(CCOc3ccc(C(=O)CCC(=O)O)cc3)CC2)c1` [Compound 3]: in assay [1] (setting [4]), the “Glycaemia, Time −60 mn” value amounted to 4.4 ± 0.3 mM/liter; the “Glycaemia, Time 0 mn” value is 5.5 ± 0.3 mM/liter; the “Glycaemia, Time 30 mn” value amounted to 11.3 ± 0.6 mM/liter; the “Glycaemia, Time 60 mn” value is recorded as 9.7 ± 0.4 mM/liter. Besides, in assay [1] (setting [4]), the “Glycaemia, Time 90 mn” value was 7.4 ± 0.3 mM/liter and the “Glycaemia, Time 120 mn” value is listed as 7.2 ± 0.5 mM/liter. Besides, the “drop of glycaemia area under curve after glucose load” value (“drop of glycaemia area under curve” below) in assay [1] (study 3, compound 3 50 mg/kg per os) is given as 54.9%.
For the compound `COc1ccccc1N1CCN(CCOc2ccc(CCCCC(=O)O)cc2)CC1` [Compound 4], in assay [1] (setting [5]), the “Glycaemia, Time −60 mn” value came out at 3.4 ± 0.2 mM/liter; the “Glycaemia, Time 0 mn” value was found to be 4.0 ± 0.3 mM/liter; the “Glycaemia, Time 30 mn” value is reported as 18.6 ± 3.2 mM/liter; the “Glycaemia, Time 60 mn” value is 13.3 ± 1.5 mM/liter. Also, in assay [1] (setting [5]), the “Glycaemia, Time 90 mn” value worked out at 8.8 ± 1.0 mM/liter and the “Glycaemia, Time 120 mn” value amounted to 6.8 ± 1.0 mM/liter. Also, in assay [1] (study 4, compound 4 50 mg/kg per os), the “drop of glycaemia area under curve” value worked out at 18.7%.
As to `O=C(O)CCC(=O)c1ccc(OCCN2CCN(c3ccccn3)CC2)cc1` [Compound 2], the “reduction of the consumption of lactate” value in assay [2] (5 mM 2-13C-lactate + 0.5 mM compound 2) was 10%. In assay [2] (setting [6]), the 13CO2 production is 5.99 ± 0.09 μmoles/flask, the ATP concentration is 188.4 ± 25.2 nanomoles per 6 precisely cut liver section and the Glucose production stood at 4.69 ± 0.14 μmoles/flask. Also, in assay [2] (setting [7]), the ATP concentration is recorded as 362.9 ± 53.3 (NS) nanomoles per 6 precisely cut liver sections, the Glucose production amounted to 6.05 ± 0.30 μmoles/flask and the “Production of 13CO2” value is on record as 1.86 ± 0.28 μmoles/flask. Further, the ATP concentration in assay [2] (5 mM glutamine + 2 mM compound 2) was 34.2 ± 7.6 nanomoles per 2 precisely cut liver sections. Besides, in assay [2] (5 mM glutamine + 2 mM compound 2, consumption of glutamine − (2 * glucose + pyruvate + lactate + alanine + glutamate products)), the Complete oxidation is 0.59 ± 0.35* μmoles/flask. For the same compound, in assay [2] (setting [8]), the “Consumption of substrate (—)” value is −2.77 ± 0.15 μmoles/flask and the Glucose production is 0.78 ± 0.09 μmoles/flask. Further, in assay [2] (setting [9]), the “Sum of labelling of non-volatile products from lactate metabolism, 1-13C-lactate” value is recorded as 1.36 ± 0.09*+ μmoles of carbon 13/flask; the “Sum of labelling of non-volatile products from lactate metabolism, 2-13C-lactate” value is reported as 4.94 ± 0.15 μmoles of carbon 13/flask; the “Sum of labelling of non-volatile products from lactate metabolism, 3-13C-lactate” value is recorded as 4.06 ± 0.15*+ μmoles of carbon 13/flask. Moreover, the ATP concentration in assay [2] (5 mM lactate + 2 mM compound 2) was 31.8 ± 8.0 nanomoles per 2 precisely cut liver sections. The Complete oxidation in assay [2] (5 mM lactate + 2 mM compound 2, consumption of lactate − (2 * glucose + pyruvate + alanine products)) is recorded as 0.64 ± 0.30* μmoles/flask. Moreover, the NADH mitochondrial transport in assay [2] (5 mM lactate + 2 mM compound 2, lactate consumption minus twice glucose production) was found to be 1.06 ± 0.33 μmoles/flask. Moreover, in assay [2] (setting [10]), the “Consumption of substrate (—)” value is −2.59 ± 0.34 μmoles/flask and the Glucose production was found to be 0.76 ± 0.13 μmoles/flask. Also, in assay [1] (setting [11]), the “Glycaemia, Time −60 mn” value came out at 4.6 ± 0.4 mM/liter; the “Glycaemia, Time 0 mn” value is 4.9 ± 0.2 mM/liter; the “Glycaemia, Time 30 mn” value was determined as 14.5 ± 1.4 mM/liter; the “Glycaemia, Time 60 mn” value amounted to 10.4 ± 0.5 mM/liter. For the same compound, in assay [1] (setting [11]), the “Glycaemia, Time 90 mn” value is given as 8.3 ± 1.1 mM/liter and the “Glycaemia, Time 120 mn” value was determined as 6.8 ± 0.6 mM/liter. Moreover, the “drop of glycaemia area under curve” value in assay [1] (study 2, compound 2 50 mg/kg per os) is 40.5%. In addition, in assay [3] (Table 9, compound 2 200 mg/kg), the “Glycaemia AUC” value was found to be 356; the “Glycaemia, Time 0 mn” value was 8.75 mmol/L; the “Glycaemia, Time 30 mn” value is 12.97 mmol/L; the “Glycaemia, Time 60 mn” value was determined as 13.15 mmol/L. In addition, in assay [3] (Table 9, compound 2 200 mg/kg), the “Glycaemia, Time 90 mn” value came to 11.37 mmol/L and the “Glycaemia, Time 120 mn” value was determined as 10.13 mmol/L. Moreover, the “Glycaemia, Time −60 mn” value in assay [3] (Table 9, compound 2 200 mg/kg, glucose load at 0 min) came to 4.75 mmol/L. For the same compound, the “Insulin, Time −60 mn” value in assay [3] (Table 10, compound 2 200 mg/kg, circulating insulin) was 0.47 ng/mL. In assay [3] (Table 10, compound 2 200 mg/kg), the “Insulin, Time 0 mn” value was 0.41 ng/mL; the “Insulin, Time 30 mn” value was 0.70 ng/mL; the “Insulin, Time 60 mn” value stood at 0.59 ng/mL; the “Insulin, Time 90 mn” value was determined as 0.54 ng/mL. In addition, in assay [3] (Table 10, compound 2 200 mg/kg), the “Insulin, Time 120 mn” value came to 0.53 ng/mL. In addition, in assay [3] (setting [12]), the “Glycaemia AUC” value was 1048; the “Glycaemia, Time 0 mn” value was determined as 5.23 mmol/L; the “Glycaemia, Time 30 mn” value came to 11.15 mmol/L; the “Glycaemia, Time 60 mn” value worked out at 16.21 mmol/L. In assay [3] (setting [12]), the “Glycaemia, Time 90 mn” value was 14.36 mmol/L; the “Glycaemia, Time 120 mn” value was 15.33 mmol/L; the “Glycaemia, Time −60 mn” value was determined as 5.12 mmol/L. Further, in assay [3] (setting [13]), the “Insulin, Time 0 mn” value was 1.41 ng/mL; the “Insulin, Time 30 mn” value was determined as 1.76 ng/mL; the “Insulin, Time 60 mn” value was 1.48 ng/mL; the “Insulin, Time 90 mn” value worked out at 1.61 ng/mL. Besides, in assay [3] (setting [13]), the “Insulin, Time 120 mn” value was determined as 1.61 ng/mL and the “Insulin, Time −60 mn” value came out at 1.11 ng/mL.
